Results reported in US7271148B2, “Inhibition of cellular proteases” (The Board of Regents of The University of Texas System, priority 1999, dated 2007).
Where a SMILES comes first, the peptide text is derived from it. The star is where a group is joined. Cbz = O=C(OCc1ccccc1)*

Tests used:
[1] = test system: p21^cip1 abundance in mock-infected LU cells; test: Western blot of p21cip1 abundance in mock-infected, density-arrested LU cells; format: cell-based, human
Description: (§1) Cell culture and growth arrest. LU cells (3) were propagated in Eagle's minimum essential medium containing 10% fetal bovine serum and penicillin (100 units/ml)/streptomycin (100 μg/ml) in a 5% CO2 in air atmosphere. The cells were density-arrested as described previously in detail (18).
(§2) Virus stocks and productive infection. The AD169 strain of HCMV was propagated in LU cells as previously described in detail (6). The infectivity of virus stocks was determined by plaque assay (3). Virus stocks typically had infectivities between 8.0×10^6 and 4.0×10^7 plaque-forming units (PFU)/milliliter. LU cells were infected with HCMV as described in detail by Bresnahan et al. (18). Virus stocks and cell cultures were routinely examined for mycoplasma.
(§3) Western blots. Polyclonal or monoclonal antibody for p21^cip1 was obtained from Santa Cruz Biotechnology, Inc. (Santa Cruz, Calif.). Monoclonal antibodies against m-calpain, μ-calpain or calpastatin were generously provided by Dr. R. I. Mellgren (see also 75). Cells were harvested as described previously (18) by dislodging the cells with a cell lifter in phosphate buffered saline. The cells were collected by sedimentation and lysed in NP-40 lysis buffer [50 mM Tris, pH 7.4, 50 mM NaCl, 0.5% NP-40, and 1 mM NaVO3, 50 mM NaF, 1mM phenylmethylsulfonyl fluoride (PMSF), 1 mM dithiothreitol (DTT), 25 μg/ml trypsin inhibitor, 25 μg/ml aprotinin, 1 mM benzamide, and 25 μg/ml pepstatin A added just before use]. Cellular debris was removed by sedimentation and the supernatant fluids were reserved. The protein concentration was determined by the BCA protein assay (Pierce, Rockford, Ill.). Whole cell extracts (40 μg/lane) were fractionated by SDS-polyacrylamide gel electrophoresis (PAGE), and the polypeptides were transferred to nitrocellulose membranes (Bio-Rad Laboratories, Hercules, Calif.) as described previously (18). Antigen-antibody reactions were detected with the enhanced chemiluminescent assay (Amersham Pharmacia Biotech) following the manufacturer's recommendations.
FIGS. 5 and 6. The effect of MG132, an inhibitor of proteasome degradation, on p21^cip1 abundance in HCMV- or mock-infected, density-arrested LU cells. 5. LU cells were density arrested, as described in Materials and Methods. The cell cultures were HCMV (5 PFU/cell)- or mock-infected and then exposed to selected concentrations of MG132 at 24 hr PI. Cell lysates were prepared at 30 hr PI (i.e., 6 hr after […] treatment), and 40 μg of protein from each lysate was resolved by SDS-PAGE. The proteins were transferred to nitrocellulose and probed with antibodies against p21^cip1. Control, cells cultured in the absence of MG132 or its solvent, DMSO. 0, DMSO solvent control, consisting of cells treated with the same concentration of DMSO (0.1%) present in the cultural fluids containing highest concentration of MG132 (10 μM). 6. Represents the abundance of p21^cip1 after MG132 treatment determined by densitometry of the data illustrated in FIG. 5. The data for mock-infected cells (open bars) were calculated relative to the p21^cip1 abundance in untreated mock-infected cells, while the data for HCMV-infected cells (closed bars) were determined relative to the p21^cip1 abundance in untreated HCMV-infected cells.
FIGS. 7 and 8. […]
At the times indicated in the FIG., whole cell lysates were prepared, and 40 μg of protein from each lysate was analyzed by SDS-PAGE. […]

[2] = test system: p21^cip1 abundance in HCMV-infected LU cells; test: Western blot of p21cip1 abundance in HCMV-infected, density-arrested LU cells; format: cell-based, human
Description: as §1, §2
as §3, with “recommendations. […]” for “recommendations.”
FIGS. 9 and 10. The concentration effect of E64d on p21^cip1 abundance in HCMV-infected cells. 9: LU cells were density arrested as described in Materials and Methods. The cells were HCMV (5 PFU/cell) or mock infected, and at 48 hr PI were treated with selected concentrations of E64d. Whole cell lysates were prepared 6 hr later, and 40 μg of protein from each lysate was resolved by SDS-PAGE. The proteins were transferred to nitrocellulose and probed with antibodies to p21^cip1. Mock: mock-infected cells in the absence of drug. Control, untreated HCMV-infected cells. 0, DMSO solvent control, consisting of HCMV-infected cells treated with the same concentration of DMSO solvent (0.1%) contained in the highest concentration of E64d. 10: Represents the abundance of p21^cip1 determined by densitometric analysis of the data in FIG. 9.
FIGS. 11 and 12. The concentration effect of Z-Leu-Leu-H on p21^cip1 abundance in HCMV-infected cells. 11. LU cells were density arrested as described in Materials and Methods. The cells were HCMV (5 PFU/cell) infected, and at 48 hr PI were treated with selected concentrations of Z-Leu-Leu-H. Whole cell lysates were prepared 6 hr later, and 40 μg of protein from each lysate was resolved by SDS-PAGE. The proteins were transferred to nitrocellulose and probed with antibodies to p21^cip1. Mock, Control, and 0 are defined as in the legend to FIG. 9. 12 : Represents the abundance of p21^cip1 determined by densitometric analysis of the data in FIG. 11.
FIGS. 13 and 14. The time course for the effect of E64d on p21^cip1 abundance in HCMV-infected, density-arrested cells. 13: LU cells were density arrested, as described in Materials and Methods. The cells were HCMV (5 PFU/cell) or mock infected, and at the intervals indicated in the Fig., beginning 1 hr after infection, subsets of the cells were treated with E64d (100 μM). […]

| SMILES | increase in p21^cip1 abundance relative to DMSO solvent control or cells in the absence of any chemical ([1]; MG132 10 μM, mock-infected density-arrested LU cells, densitometry of Western blot (FIGS. 5 and 6)) [fold] | slope of the concentration effect on p21^cip1 abundance (linear regression analysis) ([1]; mock-infected cells, MG132 0 to 10 μM, p<0.01) | change in p21^cip1 abundance (in words) ([1]; mock-infected density-arrested LU cells, MG132 0 to 10 μM) | slope of the concentration effect on p21^cip1 abundance (linear regression analysis) ([2]; HCMV-infected cells, MG132 0 to 10 μM, p<0.01) | change in p21^cip1 abundance (in words) ([2]; HCMV-infected cells, MG132 2.5 μM to 10 μM, compared with mock-infected cells) | p21^cip1 abundance as % of that measured in mock-infected cells ([2]; 100 μM, HCMV-infected cells treated at 48 hr PI, lysates 6 hr later) | protection of p21^cip1, concentration effect (in words) ([2]; HCMV-infected cells treated at 48 hr PI for 6 hr, selected concentrations up to 100 μM) |
| --- | --- | --- | --- | --- | --- | --- | --- |
| CC(C)C[C@@H](C=O)NC(=O)[C@H](CC(C)C)NC(=O)[C@H](CC(C)C)NC(=O)OCc1ccccc1 [MG132] (Cbz-Leu-Leu-Leu-aldehyde) | 3.6 | 0.33 | concentration-dependent increase in the abundance of p21^cip1 | 0.19 | smaller increases in p21^cip1 abundance |  |  |
| CC(C)CC(C=O)NC(=O)C(CC(C)C)NC(=O)OCc1ccccc1 (stereo not drawn) [Z-Leu-Leu-H] |  |  |  |  |  | about 72% | protected p21^cip1 in a concentration-dependent manner |
